These results are taken from ChEMBL document CHEMBL4715703, “Engineering of a Novel Simplified Human Insulin-Like Peptide 5 Agonist” (J Med Chem, 2016).

The target of assay [1] is T1, Relaxin-3 receptor 2 (Homo sapiens, UniProt Q8TDU9). In words: Agonist activity at human RXFP4 expressed in CHO-K1 cells assessed as reduction in forskolin-induced cAMP production by pCRE beta-galactosidase reporter assay. The class given is functional, cell-based.
Assay [2] concerns the target T1, Relaxin-3 receptor 2. In words: Displacement of europium-labeled Eu(A)-mINSL5 from human RXFP4 expressed in CHO-K1 cells. The assay is classed as cell-based.

Where a SMILES comes first, the peptide text is derived from it. Bridges are numbered along the chain shown (N, C = ends). Roman numbers before positions name the chains, in order.

T1 sequence (Q8TDU9 whole entry): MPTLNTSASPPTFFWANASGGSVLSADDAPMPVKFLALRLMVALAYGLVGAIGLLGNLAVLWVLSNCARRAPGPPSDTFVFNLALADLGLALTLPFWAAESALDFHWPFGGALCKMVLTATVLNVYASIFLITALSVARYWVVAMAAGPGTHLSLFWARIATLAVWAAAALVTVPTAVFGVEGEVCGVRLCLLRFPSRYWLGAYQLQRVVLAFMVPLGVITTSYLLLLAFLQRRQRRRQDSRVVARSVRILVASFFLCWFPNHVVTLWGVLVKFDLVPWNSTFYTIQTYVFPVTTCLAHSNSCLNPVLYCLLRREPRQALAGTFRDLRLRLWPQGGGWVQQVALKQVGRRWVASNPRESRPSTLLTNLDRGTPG

For `CC[C@H](C)[C@@H]1NC(=O)[C@H](Cc2ccc(O)cc2)NC(=O)[C@H]([C@@H](C)CC)NC(=O)[C@H](C(C)C)NC(=O)[C@H]([C@@H](C)O)NC(=O)[C@H](CCCNC(=N)N)NC(=O)[C@H](C(C)C)NC(=O)[C@H](Cc2ccc(O)cc2)NC(=O)[C@H](CC(=O)O)NC(=O)[C@H](CC(C)C)NC(=O)CNC(=O)[C@@H](NC(=O)[C@H](CC(C)C)NC(=O)[C@H](CCCCN)NC(=O)[C@@H](NC(=O)[C@@H](NC(=O)[C@H](CCC(N)=O)NC(=O)[C@H](CCCNC(=N)N)NC(=O)[C@@H](N)CO)[C@@H](C)O)C(C)C)CSSC[C@@H]2NC(=O)[C@@H](NC(=O)[C@H](CC(C)C)NC(=O)[C@@H](NC(=O)[C@H](CCC(N)=O)NC(=O)[C@H](CC(C)C)NC(=O)[C@H](CC(=O)O)NC(=O)C3CCC(=O)N3)[C@@H](C)O)CSSC[C@@H](NC(=O)CNC(=O)[C@H](CC(=O)O)NC(=O)[C@H]([C@@H](C)O)NC2=O)C(=O)N[C@H](CO)C(=O)N[C@H](CCSC)C(=O)N[C@H]([C@H](C)O)C(=O)N[C@H](CC(=O)O)C(=O)N[C@H](CC(C)C)C(=O)N[C@H](CO)C(=O)N[C@H](C)C(=O)N[C@H](CC(C)C)C(=O)N[C@@H](C(=O)O)CSSC[C@H](C(=O)N[C@@H](C)C(=O)N[C@@H](CO)C(=O)N[C@@H](CO)C(=O)N[C@@H](CCCNC(=N)N)C(=O)N[C@@H](Cc2c[nH]c3ccccc23)C(=O)O)NC1=O` (stereo not given in full), the EC50 on Relaxin-3 receptor 2 [1] stood at 2.75 nM.
On to `CC[C@H](C)[C@@H]1NC(=O)[C@H](Cc2ccc(O)cc2)NC(=O)[C@H]([C@@H](C)CC)NC(=O)[C@H](C(C)C)NC(=O)[C@H]([C@@H](C)O)NC(=O)[C@H](CCCNC(=N)N)NC(=O)[C@H]([C@@H](C)CC)NC(=O)[C@H](Cc2ccc(O)cc2)NC(=O)[C@H](CCC(=O)O)NC(=O)[C@H](CC(C)C)NC(=O)CNC(=O)[C@@H](NC(=O)[C@H](CC(C)C)NC(=O)[C@H](CCCNC(=N)N)NC(=O)[C@@H](NC(=O)[C@H](CO)NC(=O)[C@H](CCC(=O)O)NC(=O)[C@@H](N)CCCCN)C(C)C)CSSC[C@H](N)C(=O)N[C@@H]([C@@H](C)O)C(=O)N[C@@H](CC(=O)O)C(=O)NCC(=O)N[C@@H](C)C(=O)N[C@@H](CO)C(=O)N[C@@H](CCSC)C(=O)N[C@@H]([C@@H](C)O)C(=O)N[C@@H](CC(=O)O)C(=O)N[C@@H](CC(C)C)C(=O)N[C@@H](CO)C(=O)N[C@@H](C)C(=O)N[C@@H](CC(C)C)C(=O)N[C@H](C(=O)O)CSSC[C@@H](C(=O)N[C@@H](C)C(=O)N[C@@H](CO)C(=O)N[C@@H](CO)C(=O)N[C@@H](CCCNC(=N)N)C(=O)N[C@@H](Cc2c[nH]c3ccccc23)C(=O)O)NC1=O` (I: H-KESVRLCGLEYIRTVIYICASSRW-OH / II: H-CTDGASMTDLSALC-OH; disulfide I:7-II:1, I:19-II:14), for which, on Relaxin-3 receptor 2 [1], the EC50 worked out at 100 nM. On Relaxin-3 receptor 2 [2], this compound displayed a Ki of 145 nM.
Consider `CC[C@H](C)[C@@H]1NC(=O)[C@H](Cc2ccc(O)cc2)NC(=O)[C@H]([C@@H](C)CC)NC(=O)[C@H](C(C)C)NC(=O)[C@H]([C@@H](C)O)NC(=O)[C@H](CCCNC(=N)N)NC(=O)[C@H]([C@@H](C)CC)NC(=O)[C@H](Cc2ccc(O)cc2)NC(=O)[C@H](CCC(=O)O)NC(=O)[C@H](CC(C)C)NC(=O)CNC(=O)[C@@H](NC(=O)[C@H](CC(C)C)NC(=O)[C@H](CCCNC(=N)N)NC(=O)[C@@H](NC(=O)[C@H](CO)NC(=O)[C@H](CCC(=O)O)NC(=O)[C@@H](N)CCCCN)C(C)C)CSSC[C@H](N)C(=O)N[C@@H](CCCNC(=N)N)C(=O)N[C@@H](CC(=O)O)C(=O)NCC(=O)N[C@@H](C)C(=O)N[C@@H](CO)C(=O)N[C@@H](CCSC)C(=O)N[C@@H](CCCCN)C(=O)N[C@@H](CC(=O)O)C(=O)N[C@@H](CC(C)C)C(=O)N[C@@H](CO)C(=O)N[C@@H](C)C(=O)N[C@@H](CC(C)C)C(=O)N[C@H](C(=O)O)CSSC[C@@H](C(=O)N[C@@H](C)C(=O)N[C@@H](CO)C(=O)N[C@@H](CO)C(=O)N[C@@H](CCCNC(=N)N)C(=O)N[C@@H](Cc2c[nH]c3ccccc23)C(=O)O)NC1=O` (I: H-KESVRLCGLEYIRTVIYICASSRW-OH / II: H-CRDGASMKDLSALC-OH; disulfide I:7-II:1, I:19-II:14), for which the EC50 on Relaxin-3 receptor 2 [1] worked out at 39.8 nM. Also, the Ki on Relaxin-3 receptor 2 [2] stood at 23.4 nM.
For “I: H-KESVRLCGLEYIRTVIYICASSRW-OH / II: H-RDLQALCCREGCSMKELSTLC-OH (disulfide I:7-II:8, I:19-II:21, II:7-II:12)”, in that order: 0.35 nM and 5.5 nM.
In the case of `CC[C@H](C)[C@@H]1NC(=O)[C@H](Cc2ccc(O)cc2)NC(=O)[C@H]([C@@H](C)CC)NC(=O)[C@H](C(C)C)NC(=O)[C@H]([C@@H](C)O)NC(=O)[C@H](CCCNC(=N)N)NC(=O)[C@H](C(C)C)NC(=O)[C@H](Cc2ccc(O)cc2)NC(=O)[C@H](CC(=O)O)NC(=O)[C@H](CC(C)C)NC(=O)CNC(=O)[C@@H](NC(=O)[C@H](CC(C)C)NC(=O)[C@H](CCCCN)NC(=O)[C@@H](NC(=O)[C@@H](NC(=O)[C@H](CCC(N)=O)NC(=O)[C@H](CCCNC(=N)N)NC(=O)[C@@H](N)CO)[C@@H](C)O)C(C)C)CSSC[C@H](N)C(=O)N[C@@H](CCCNC(=N)N)C(=O)N[C@@H](CCC(=O)O)C(=O)NCC(=O)N[C@@H](C)C(=O)N[C@@H](CO)C(=O)N[C@@H](CCSC)C(=O)N[C@@H](CCCCN)C(=O)N[C@@H](CCC(=O)O)C(=O)N[C@@H](CC(C)C)C(=O)N[C@@H](CO)C(=O)N[C@@H]([C@@H](C)O)C(=O)N[C@@H](CC(C)C)C(=O)N[C@H](C(=O)O)CSSC[C@@H](C(=O)N[C@@H](C)C(=O)N[C@@H](CO)C(=O)N[C@@H](CO)C(=O)N[C@@H](CCCNC(=N)N)C(=O)N[C@@H](Cc2c[nH]c3ccccc23)C(=O)O)NC1=O` (I: H-SRQTVKLCGLDYVRTVIYICASSRW-OH / II: H-CREGASMKELSTLC-OH; disulfide I:8-II:1, I:20-II:14), on Relaxin-3 receptor 2 [1], the EC50 stood at 33.9 nM. This compound had a Ki on Relaxin-3 receptor 2 [2] of 18.6 nM.
The like results for `CC[C@H](C)[C@@H]1NC(=O)[C@H](Cc2ccc(O)cc2)NC(=O)[C@H]([C@@H](C)CC)NC(=O)[C@H](C(C)C)NC(=O)[C@H]([C@@H](C)O)NC(=O)[C@H](CCCNC(=N)N)NC(=O)[C@H]([C@@H](C)CC)NC(=O)[C@H](Cc2ccc(O)cc2)NC(=O)[C@H](CCC(=O)O)NC(=O)[C@H](CC(C)C)NC(=O)CNC(=O)[C@@H](NC(=O)[C@H](CC(C)C)NC(=O)[C@H](CCCNC(=N)N)NC(=O)[C@@H](NC(=O)[C@H](CO)NC(=O)[C@H](CCC(=O)O)NC(=O)[C@@H](N)CCCCN)C(C)C)CSSC[C@H](N)C(=O)N[C@@H](CCCNC(=N)N)C(=O)N[C@@H](CC(=O)O)C(=O)NCC(=O)N[C@@H](C)C(=O)N[C@@H](CO)C(=O)N[C@@H](CCSC)C(=O)N[C@@H]([C@@H](C)O)C(=O)N[C@@H](CC(=O)O)C(=O)N[C@@H](CC(C)C)C(=O)N[C@@H](CO)C(=O)N[C@@H](C)C(=O)N[C@@H](CC(C)C)C(=O)N[C@H](C(=O)O)CSSC[C@@H](C(=O)N[C@@H](C)C(=O)N[C@@H](CO)C(=O)N[C@@H](CO)C(=O)N[C@@H](CCCNC(=N)N)C(=O)N[C@@H](Cc2c[nH]c3ccccc23)C(=O)O)NC1=O` (I: H-KESVRLCGLEYIRTVIYICASSRW-OH / II: H-CRDGASMTDLSALC-OH; disulfide I:7-II:1, I:19-II:14) were, in that order, 603 nM and 912 nM.
Consider `CC[C@H](C)[C@@H]1NC(=O)[C@H](Cc2ccc(O)cc2)NC(=O)[C@H]([C@@H](C)CC)NC(=O)[C@H](C(C)C)NC(=O)[C@H]([C@@H](C)O)NC(=O)[C@H](CCCNC(=N)N)NC(=O)[C@H]([C@@H](C)CC)NC(=O)[C@H](Cc2ccc(O)cc2)NC(=O)[C@H](CCC(=O)O)NC(=O)[C@H](CC(C)C)NC(=O)CNC(=O)[C@@H](NC(=O)[C@H](CC(C)C)NC(=O)[C@H](CCCNC(=N)N)NC(=O)[C@@H](NC(=O)[C@H](CO)NC(=O)[C@H](CCC(=O)O)NC(=O)[C@@H](N)CCCCN)C(C)C)CSSC[C@H](N)C(=O)N[C@@H](CCCNC(=N)N)C(=O)N[C@@H](CCC(=O)O)C(=O)NCC(=O)N[C@@H](C)C(=O)N[C@@H](CO)C(=O)N[C@@H](CCSC)C(=O)N[C@@H](CCCCN)C(=O)N[C@@H](CCC(=O)O)C(=O)N[C@@H](CC(C)C)C(=O)N[C@@H](CO)C(=O)N[C@@H]([C@@H](C)O)C(=O)N[C@@H](CC(C)C)C(=O)N[C@H](C(=O)O)CSSC[C@@H](C(=O)N[C@@H](C)C(=O)N[C@@H](CO)C(=O)N[C@@H](CO)C(=O)N[C@@H](CCCNC(=N)N)C(=O)N[C@@H](Cc2c[nH]c3ccccc23)C(=O)O)NC1=O` (I: H-KESVRLCGLEYIRTVIYICASSRW-OH / II: H-CREGASMKELSTLC-OH; disulfide I:7-II:1, I:19-II:14), for which the EC50 at Relaxin-3 receptor 2 [1] came to 15.1 nM. Besides, the affinity on Relaxin-3 receptor 2 [2], expressed as Ki, was 22.4 nM.
For `CC[C@H](C)[C@@H]1NC(=O)[C@H](C(C)C)NC(=O)[C@H]([C@@H](C)O)NC(=O)[C@H](CCCNC(=N)N)NC(=O)[C@H](C(C)C)NC(=O)[C@H](Cc2ccc(O)cc2)NC(=O)[C@H](CC(=O)O)NC(=O)[C@H](CC(C)C)NC(=O)CNC(=O)[C@@H](NC(=O)[C@H](CC(C)C)NC(=O)[C@H](CCCCN)NC(=O)[C@@H](NC(=O)[C@@H](NC(=O)[C@H](CCC(N)=O)NC(=O)[C@H](CCCNC(=N)N)NC(=O)[C@@H](N)CO)[C@@H](C)O)C(C)C)CSSC[C@@H]2NC(=O)[C@@H](NC(=O)[C@H](CC(C)C)NC(=O)[C@H](C)NC(=O)[C@H](CCC(N)=O)NC(=O)[C@H](CC(C)C)NC(=O)[C@H](CC(=O)O)NC(=O)[C@@H](N)CCCNC(=N)N)CSSC[C@H](NC(=O)CNC(=O)[C@H](CCC(=O)O)NC(=O)[C@H](CCCNC(=N)N)NC2=O)C(=O)N[C@@H](CO)C(=O)N[C@@H](CCSC)C(=O)N[C@@H](CCCCN)C(=O)N[C@@H](CCC(=O)O)C(=O)N[C@@H](CC(C)C)C(=O)N[C@@H](CO)C(=O)N[C@@H]([C@@H](C)O)C(=O)N[C@@H](CC(C)C)C(=O)N[C@H](C(=O)O)CSSC[C@@H](C(=O)N[C@@H](C)C(=O)N[C@@H](CO)C(=O)N[C@@H](CO)C(=O)N[C@@H](CCCNC(=N)N)C(=O)N[C@@H](Cc2c[nH]c3ccccc23)C(=O)O)NC(=O)[C@H]([C@@H](C)CC)NC(=O)[C@@H](Cc2ccc(O)cc2)NC1=O`, in that order: 0.51 nM and 1.58 nM.
